For the assay, the target named is T1, Human DNA polymerase γ (Homo sapiens, UniProt P54098).
T1 construct: His tag; made in house; host or cells: baculovirus expression system (insect cells)
T1 sequence (P54098 1-1239): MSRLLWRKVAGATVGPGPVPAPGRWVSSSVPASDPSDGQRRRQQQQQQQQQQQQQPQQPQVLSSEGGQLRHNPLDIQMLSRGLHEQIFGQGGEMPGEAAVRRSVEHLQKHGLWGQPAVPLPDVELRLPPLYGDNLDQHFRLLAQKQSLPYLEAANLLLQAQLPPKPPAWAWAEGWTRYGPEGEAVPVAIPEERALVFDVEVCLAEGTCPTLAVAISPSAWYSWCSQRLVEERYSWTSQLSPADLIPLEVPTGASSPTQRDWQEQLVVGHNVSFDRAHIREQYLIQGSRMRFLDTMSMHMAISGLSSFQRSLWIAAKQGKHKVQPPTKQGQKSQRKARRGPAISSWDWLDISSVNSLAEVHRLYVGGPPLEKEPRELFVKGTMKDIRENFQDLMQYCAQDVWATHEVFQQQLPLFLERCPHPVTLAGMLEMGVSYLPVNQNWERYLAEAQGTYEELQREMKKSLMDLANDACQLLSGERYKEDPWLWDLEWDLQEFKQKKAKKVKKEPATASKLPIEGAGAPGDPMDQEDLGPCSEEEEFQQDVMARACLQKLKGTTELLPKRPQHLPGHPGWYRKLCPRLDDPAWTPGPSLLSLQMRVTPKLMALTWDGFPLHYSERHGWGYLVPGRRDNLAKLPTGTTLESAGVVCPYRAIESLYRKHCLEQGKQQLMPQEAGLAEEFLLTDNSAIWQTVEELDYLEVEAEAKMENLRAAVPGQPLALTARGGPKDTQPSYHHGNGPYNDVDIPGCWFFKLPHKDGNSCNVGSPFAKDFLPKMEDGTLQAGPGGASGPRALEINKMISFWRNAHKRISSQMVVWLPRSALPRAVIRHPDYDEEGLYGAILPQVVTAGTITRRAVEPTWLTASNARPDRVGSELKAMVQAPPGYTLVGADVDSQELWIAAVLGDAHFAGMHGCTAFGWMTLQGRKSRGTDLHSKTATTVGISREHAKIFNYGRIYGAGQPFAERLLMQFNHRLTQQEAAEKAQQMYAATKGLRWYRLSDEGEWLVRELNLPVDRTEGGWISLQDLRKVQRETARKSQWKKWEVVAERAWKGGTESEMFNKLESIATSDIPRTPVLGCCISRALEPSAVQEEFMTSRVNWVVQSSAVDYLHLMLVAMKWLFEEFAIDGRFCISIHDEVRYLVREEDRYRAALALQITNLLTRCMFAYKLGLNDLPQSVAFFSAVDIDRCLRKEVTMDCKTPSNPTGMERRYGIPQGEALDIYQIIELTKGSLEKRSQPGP
The assay is described as follows: DNA polymerase assay, human pol γ. It is filed as biochemical. From the text: Pol α was purified from calf thymus by immuno-affinity column chromatography as described by Tamai et al.. Recombinant rat pol β was purified from E. coli JMpβ5 as described by Date et al.. The human pol γ catalytic gene was cloned into pFastBac. Histidine-tagged enzyme was expressed using the BAC-TO-BAC HT Baculovirus Expression System according to the supplier's manual (LIFE TECHNOLOGIES, MD, USA) and purified using ProBoundresin (Invitrogen Japan, Tokyo, Japan). Human pols δ and ε were purified by the nuclear fractionation of human peripheral blood cancer cells (Molt-4) using the second subunit of pols δ and ε-conjugated affinity column chromatography, respectively. Recombinant human pols η and ι tagged with His6 at their C-terminal were expressed in SF9 insect cells using the baculovirus expression system, and were purified as described previously. A truncated form of pol κ (i.e., hDINB1DC) with 6 x His-tags attached at the C-terminal was overproduced using the BAC-to-BAC Baculovirus Expression System kit (GIBCO BRL, MD, USA) and purified as described previously. […]
For pols, poly(dA)/oligo(dT)12-18 (A/T = 2/1) and dTTP were used as the DNA template-primer and nucleotide (i.e., dNTP) substrate, respectively. […] Activity without the inhibitor was considered 100%, and the remaining activity at each concentration of the inhibitor was determined relative to this value. […]

For orientation: IC50 means the concentration needed to halve the response being measured. Higher therefore signals a need for much substance.

In turn, `CC1=CC[C@H]2C(C)(C)CCC[C@]2(C)[C@H]1CCCCCCCCCCCCCCCCC(=O)O` (relative stereo) [compound 11, (1S*,4aS*,8aS*)-17-(1,4,4a,5,6,7,8,8a-octahydro-2,5,5,8a-tetramethylnaphthalen-1-yl)heptadecanoic acid] gave an IC50 of 8.76 ± 0.44 µM.

Values taken from paper PMC6253949, “The Inhibitory Action of Kohamaic Acid A Derivatives on Mammalian DNA Polymerase β” (Molecules, 2008).
